Data: patent EP0908457B1, “3-(1,2-benzisothiazol- and isoxazol-5-Y1)-2,4(1H,3H)-pyrimidinedione or thione and 3-(1,2-benzisothiazol- and isoxazol-5-y1)-4(3H)-pyrimidinone or thione herbicidal agents” (BASF AKTIENGESELLSCHAFT, priority 1997, dated 1999)

Columns and labels:
[1] = system: Echinochloa oryzoides (Ard.) Fritsch.; assay: Preemergence weed control under flooded paddy conditions, ECHORC (Watergrass (Calif.)); format: in vivo; conditions: flooded paddy; for herbicidal effect rating, ECHORC: preemergence, rated three to four weeks after treatment; for ECHORC: preemergence weeds, herbicidal effect rating 0-9, three to four weeks after treatment; on herbicidal effect rating, ECHORC: meaning of each grade not given here
[2] = system: Cyperus iria; assay: Preemergence weed control under flooded paddy conditions, CYPIR (Rice Flatsedge); format: in vivo; conditions: flooded paddy; for herbicidal effect rating, CYPIR: preemergence, rated three to four weeks after treatment; for CYPIR: preemergence weeds, herbicidal effect rating 0-9, three to four weeks after treatment; on herbicidal effect rating, CYPIR: meaning of each grade not given here
[3] = system: Cyperus serotinus, Rottb.; assay: Preemergence weed control under flooded paddy conditions, CYPSE (Flatsedge); format: in vivo; conditions: for herbicidal effect rating, CYPSE: preemergence, rated three to four weeks after treatment; for CYPSE: preemergence weeds, herbicidal effect rating 0-9, three to four weeks after treatment; on herbicidal effect rating, CYPSE: meaning of each grade not given here
[4] = system: Monochoria vaginalis, Presl.; assay: Preemergence weed control under flooded paddy conditions, MOOVA (Monochoria); format: in vivo; conditions: flooded paddy; for herbicidal effect rating, MOOVA: preemergence, rated three to four weeks after treatment; for MOOVA: preemergence weeds, herbicidal effect rating 0-9, three to four weeks after treatment; on herbicidal effect rating, MOOVA: meaning of each grade not given here
[5] = system: Sagittaria pygmaea, L.; assay: Preemergence weed control under flooded paddy conditions, SAGPY (Arrowhead (Pygmaea)); format: in vivo; conditions: flooded paddy; for herbicidal effect rating, SAGPY: preemergence, rated three to four weeks after treatment; for SAGPY: preemergence weeds, herbicidal effect rating 0-9, three to four weeks after treatment; on herbicidal effect rating, SAGPY: meaning of each grade not given here
[6] = system: Echinochloa oryzoides (Ard.) Fritsch.; assay: Postemergence weed control under flooded paddy conditions, ECHORC (Watergrass (Calif.)); format: in vivo; conditions: rated three to four weeks after treatment
[7] = system: Cyperus iria; assay: Postemergence weed control under flooded paddy conditions, CYPIR (Rice Flatsedge); format: in vivo; conditions: rated three to four weeks after treatment
[8] = system: Cyperus serotinus, Rottb.; assay: Postemergence weed control under flooded paddy conditions, CYPSE (Flatsedge); format: in vivo; conditions: rated three to four weeks after treatment
[9] = system: Monochoria vaginalis, Presl.; assay: Postemergence weed control under flooded paddy conditions, MOOVA (Monochoria); format: in vivo; conditions: rated three to four weeks after treatment
[10] = system: Sagittaria pygmaea, L.; assay: Postemergence weed control under flooded paddy conditions, SAGPY (Arrowhead (Pygmaea)); format: in vivo; conditions: rated three to four weeks after treatment
[11] = system: Oryza sativa, (L.) Tebonnet; assay: Rice tolerance to post-transplant applications under flooded paddy conditions (Example 187), ORYSAT (Rice, Tebonnet); conditions: for herbicidal effect rating, ORYSAT (rice tolerance): rated three to four weeks after treatment; for ORYSAT: herbicidal effect rating 0-9, three to four weeks after treatment
[12] = system: Oryza sativa, (L.) Tebonnet; assay: Rice tolerance to post-transplant applications under flooded paddy conditions (Example 188), ORYSAT (Rice, Tebonnet); conditions: rated three to four weeks after treatment

Cn1c(C(F)(F)F)cc(=O)n(-c2ccc3snc(-c4ccccc4)c3c2)c1=O [Example 4, 1-Methyl-3-(3-phenyl-1,2-benzisothiazol-5-yl)-6-(trifluoromethyl)-2,4(1H,3H)-pyrimidinedione]
3.0: herbicidal effect rating, SAGPY ([10]; Rate 0.0313 kg/ha) | herbicidal effect rating, ORYSAT (rice tolerance) ([12]; Rate 0.0313 kg/ha)
7.0: herbicidal effect rating, ECHORC ([6]; Rate 0.0313 kg/ha) | herbicidal effect rating, CYPSE ([8]; Rate 0.1250 kg/ha) | herbicidal effect rating, CYPSE ([8]; Rate 0.2500 kg/ha) | herbicidal effect rating, ORYSAT (rice tolerance) ([11]; 0.0625 kg/ha) | herbicidal effect rating, ORYSAT (rice tolerance) ([11]; 0.1250 kg/ha) | herbicidal effect rating, ORYSAT (rice tolerance) ([12]; Rate 0.1250 kg/ha)
8.0: herbicidal effect rating, CYPIR ([7]; Rate 0.0313 kg/ha) | herbicidal effect rating, MOOVA ([9]; Rate 0.0313 kg/ha) | herbicidal effect rating, ORYSAT (rice tolerance) ([11]; 0.2500 kg/ha) | herbicidal effect rating, ORYSAT (rice tolerance) ([11]; 0.5000 kg/ha) | herbicidal effect rating, ORYSAT (rice tolerance) ([12]; Rate 0.2500 kg/ha) | herbicidal effect rating, ORYSAT (rice tolerance) ([12]; Rate 0.5000 kg/ha)
9.0: herbicidal effect rating, ECHORC ([1]; 0.0313 kg/ha) | herbicidal effect rating, ECHORC ([1]; 0.0625 kg/ha) | herbicidal effect rating, ECHORC ([1]; 0.1250 kg/ha) | herbicidal effect rating, ECHORC ([1]; 0.2500 kg/ha) | herbicidal effect rating, ECHORC ([1]; 0.5000 kg/ha) | herbicidal effect rating, CYPIR ([2]; 0.0313 kg/ha) | herbicidal effect rating, CYPIR ([2]; 0.0625 kg/ha) | herbicidal effect rating, CYPIR ([2]; 0.1250 kg/ha) | herbicidal effect rating, CYPIR ([2]; 0.2500 kg/ha) | herbicidal effect rating, CYPIR ([2]; 0.5000 kg/ha) | herbicidal effect rating, CYPSE ([3]; 0.1250 kg/ha) | herbicidal effect rating, CYPSE ([3]; 0.2500 kg/ha) | herbicidal effect rating, CYPSE ([3]; 0.5000 kg/ha) | herbicidal effect rating, MOOVA ([4]; 0.0313 kg/ha) | herbicidal effect rating, MOOVA ([4]; 0.0625 kg/ha) | herbicidal effect rating, MOOVA ([4]; 0.1250 kg/ha) | herbicidal effect rating, MOOVA ([4]; 0.2500 kg/ha) | herbicidal effect rating, MOOVA ([4]; 0.5000 kg/ha) | herbicidal effect rating, SAGPY ([5]; 0.2500 kg/ha) | herbicidal effect rating, SAGPY ([5]; 0.5000 kg/ha) | herbicidal effect rating, ECHORC ([6]; Rate 0.0625 kg/ha) | herbicidal effect rating, ECHORC ([6]; Rate 0.1250 kg/ha) | herbicidal effect rating, ECHORC ([6]; Rate 0.2500 kg/ha) | herbicidal effect rating, ECHORC ([6]; Rate 0.5000 kg/ha) | herbicidal effect rating, CYPIR ([7]; Rate 0.0625 kg/ha) | herbicidal effect rating, CYPIR ([7]; Rate 0.1250 kg/ha) | herbicidal effect rating, CYPIR ([7]; Rate 0.2500 kg/ha) | herbicidal effect rating, CYPIR ([7]; Rate 0.5000 kg/ha) | herbicidal effect rating, CYPSE ([8]; Rate 0.5000 kg/ha) | herbicidal effect rating, MOOVA ([9]; Rate 0.0625 kg/ha) | herbicidal effect rating, MOOVA ([9]; Rate 0.1250 kg/ha) | herbicidal effect rating, MOOVA ([9]; Rate 0.2500 kg/ha) | herbicidal effect rating, MOOVA ([9]; Rate 0.5000 kg/ha) | herbicidal effect rating, SAGPY ([10]; Rate 0.2500 kg/ha) | herbicidal effect rating, SAGPY ([10]; Rate 0.5000 kg/ha)
4.0: herbicidal effect rating, CYPSE ([8]; Rate 0.0625 kg/ha) | herbicidal effect rating, ORYSAT (rice tolerance) ([11]; 0.0313 kg/ha) | herbicidal effect rating, ORYSAT (rice tolerance) ([12]; Rate 0.0625 kg/ha)
2.0: herbicidal effect rating, CYPSE ([3]; 0.0625 kg/ha) | herbicidal effect rating, SAGPY ([5]; 0.0313 kg/ha) | herbicidal effect rating, SAGPY ([5]; 0.0625 kg/ha) | herbicidal effect rating, CYPSE ([8]; Rate 0.0313 kg/ha) | herbicidal effect rating, SAGPY ([10]; Rate 0.0625 kg/ha)
6.0: herbicidal effect rating, SAGPY ([5]; 0.1250 kg/ha) | herbicidal effect rating, SAGPY ([10]; Rate 0.1250 kg/ha)

COc1ccc(I)cc1-c1nsc2ccc(-n3c(=O)cc(C(F)(F)F)n(C)c3=O)cc12 [Example 448, 2,4(1H,3H)-Pyrimidinedione, 3-[3-(5-iodo-2-methoxyphenyl)-1,2-benzisothiazol-5-yl]-1-methyl-6-(trifluoromethyl)-]
1.0: herbicidal effect rating, ECHORC ([6]; Rate 0.1250 kg/ha) | herbicidal effect rating, MOOVA ([9]; Rate 0.1250 kg/ha) | herbicidal effect rating, ORYSAT (rice tolerance) ([12]; Rate 0.1250 kg/ha)
9.0: ECHORC ([1]; 0.0320 kg/ha) | ECHORC ([1]; 0.0620 kg/ha) | ECHORC ([1]; 0.1250 kg/ha) | ECHORC ([1]; 0.2500 kg/ha) | CYPIR ([2]; 0.0620 kg/ha) | CYPIR ([2]; 0.1250 kg/ha) | CYPIR ([2]; 0.2500 kg/ha) | MOOVA ([4]; 0.0320 kg/ha) | MOOVA ([4]; 0.0620 kg/ha) | MOOVA ([4]; 0.1250 kg/ha) | MOOVA ([4]; 0.2500 kg/ha) | herbicidal effect rating, CYPIR ([7]; Rate 0.2500 kg/ha)
7.0: herbicidal effect rating, CYPIR ([7]; Rate 0.1250 kg/ha)
3.5: SAGPY ([5]; 0.2500 kg/ha) | ORYSAT ([11]; 0.0320 kg/ha)
2.0: herbicidal effect rating, ECHORC ([6]; Rate 0.2500 kg/ha) | herbicidal effect rating, ORYSAT (rice tolerance) ([12]; Rate 0.2500 kg/ha)
6.5: CYPSE ([3]; 0.2500 kg/ha)
4.0: herbicidal effect rating, MOOVA ([9]; Rate 0.2500 kg/ha) | ORYSAT ([11]; 0.0620 kg/ha) | ORYSAT ([11]; 0.1250 kg/ha) | ORYSAT ([11]; 0.2500 kg/ha)
0.0: SAGPY ([5]; 0.0320 kg/ha) | herbicidal effect rating, ECHORC ([6]; Rate 0.0620 kg/ha) | herbicidal effect rating, CYPSE ([8]; Rate 0.0620 kg/ha) | herbicidal effect rating, CYPSE ([8]; Rate 0.1250 kg/ha) | herbicidal effect rating, CYPSE ([8]; Rate 0.2500 kg/ha) | herbicidal effect rating, MOOVA ([9]; Rate 0.0620 kg/ha) | herbicidal effect rating, SAGPY ([10]; Rate 0.0620 kg/ha) | herbicidal effect rating, SAGPY ([10]; Rate 0.1250 kg/ha) | herbicidal effect rating, SAGPY ([10]; Rate 0.2500 kg/ha) | herbicidal effect rating, ORYSAT (rice tolerance) ([12]; Rate 0.0620 kg/ha)
1.5: SAGPY ([5]; 0.0620 kg/ha)
4.5: CYPSE ([3]; 0.0320 kg/ha) | CYPSE ([3]; 0.0620 kg/ha) | CYPSE ([3]; 0.1250 kg/ha)
2.5: SAGPY ([5]; 0.1250 kg/ha)
8.5: CYPIR ([2]; 0.0320 kg/ha)
